Data as given in PubChem BioAssay (NCI).
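Interpolation was linear, between the two tested concentrations surrounding the appropriate level; five concentrations were tested over 48 hours in 96-well plates. GI50 is the concentration that inhibits growth by half. TGI: concentration producing complete growth inhibition.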

Assays:
Test in all cases: NCI tumour cell line growth inhibition, 48 h
M19-MEL melanoma = system: M19-MEL melanoma
HCC-2998 colon = system: HCC-2998 colon
DMS 114 small cell lung = system: DMS 114 small cell lung
DLD-1 colon = system: DLD-1 colon
LXFL 529 NSCLC = system: LXFL 529 NSCLC
KM12 colon = system: KM12 colon
OVCAR-5 ovarian = system: OVCAR-5 ovarian
SNB-78 CNS = system: SNB-78 CNS
SN12C renal = system: SN12C renal
DMS 273 small cell lung = system: DMS 273 small cell lung
BT-549 breast = system: BT-549 breast
DU-145 prostate = system: DU-145 prostate

SMILES	TGI (M19-MEL melanoma) [µM]	TGI (HCC-2998 colon) [µM]	TGI (DMS 114 small cell lung) [µM]	TGI (DLD-1 colon) [µM]	TGI (LXFL 529 NSCLC) [µM]	TGI (KM12 colon) [µM]	TGI (OVCAR-5 ovarian) [µM]	TGI (SNB-78 CNS) [µM]	TGI (SN12C renal) [µM]	TGI (DMS 273 small cell lung) [µM]	GI50 (LXFL 529 NSCLC) [µM]	GI50 (SNB-78 CNS) [µM]	TGI (BT-549 breast) [µM]	TGI (DU-145 prostate) [µM]	GI50 (HCC-2998 colon) [µM]	GI50 (BT-549 breast) [µM]	GI50 (KM12 colon) [µM]	GI50 (OVCAR-5 ovarian) [µM]	GI50 (DU-145 prostate) [µM]	GI50 (SN12C renal) [µM]
O=C1c2ccccc2C(=O)c2c1cc(S(=O)(=O)O)c(O)c2O	> 100	> 100	> 100	> 100	> 100	> 100	> 100	> 100	> 100											
O=S(=O)(O)C1=C2Sc3ccccc3N=C2c2ccccc2C1		31.4	22.2	32.5	24.6	29.5	34.5	34	26.8	29.5										
[Cl-].[Rh+3].c1cnc2c(c1)ccc1cccnc12.c1cnc2c(c1)ccc1cccnc12.c1cnc2c(c1)ccc1cccnc12		> 100			> 100	> 100	> 100	> 100	> 100		> 100	> 100								
O=C(N/N=C/C=C/c1ccccc1)[C@H](O)[C@@H](O)C(=O)N/N=C/C=C/c1ccccc1	> 100	> 100	> 100	> 100	> 100	> 100	> 100	> 100	> 100	> 100										
c1nc(N2CC2)c2cnn(C3CCCCO3)c2n1 (stereo not drawn)	> 100	> 100	> 100	> 100	> 100	> 100	> 100	> 100	> 100	> 100			> 100	> 100						
COc1ccc2c(c1)C(=O)Cc1ccccc1CC2	> 100	> 100	> 100	> 100	> 100	> 100	> 100	> 100	> 100	> 100										
OCCCNc1nc(=S)[nH]c2[nH]ncc12		> 100				> 100	> 100		> 100				> 100	> 100	22.3	46.8	38.1	45.8	41.3	41
C[N+](C)(C)CCCSc1nc2ccccc2[nH]1		> 100				> 100	> 100		> 100				> 100	> 100						
COC(=O)C1=C(O)C(C(=O)OC)[C@]2(O)[C@H](C(=O)OC)[C@H]1C[C@@H](c1ccc(OC)c(OC)c1)[C@H]2C(=O)OC (stereo partly drawn)		27.1				54.5	> 100		> 100				83.7	93.8						
Ic1ccc2c(c1)N(c1ccccc1)c1cc(N=c3ccc4nc5ccc(I)cc5n(-c5ccccc5)c-4c3)ccc1N2		> 100				> 100	> 100		> 100				> 100	> 100						
CCOC(=O)C1(Cc2ccccc2)C=CN(C(=O)c2ccccc2)C=C1		> 100				> 100	> 100		> 100				> 100	> 100						
C/C(Cl)=N/OC(=O)Nc1ccc(S(N)(=O)=O)c(C)c1		32.7				41.2	34.4		26.8				25.1	30.5						
COc1ccc2c(c1)-c1nc(=S)n(CCCN(C)C)c3ccc([N+](=O)[O-])c(c13)N2		18.6				6.31	3.62		10.3				21.7	17.9						
Cc1cc(S(=O)(=O)Nc2nc(N)n(-c3ccccn3)n2)c(S)cc1Cl		> 100				> 100	> 100		> 100				> 100	> 100						
c1ccc2c(c1)CC1=C(O2)c2ccccc2OC1		42.2				> 100	> 100		37.4				51.1	> 100						
